These results are taken from US5008401A, “Cyanine compounds” (Asahi Chemical Co., Ltd., priority 1990, dated 1991).

Series [1] in a line: Absorption maximum (λmax) and molar absorptivity (ε) in solution. It counts as physicochemical.
Series [2] is described as follows: Test for solubility in solvent. It counts as physicochemical. The conditions noted are these: for Solubility: methanol, room temperature. Here is the method: Each of cyanine dyes as shown below in Table 2 was dissolved in methanol and the solubility was determined at room temperature with the results indicated below in Table 2.

`CCCOc1cc(C)c2c(c1)C(C)(C)C(=CC=CC=CC1=[N+](CC)c3c(C)cc(OCCC)cc3C1(C)C)N2CC` [Preparation Example 8]: the λmax in series [1] (diacetone alcohol) was 683 nm.
`CCOc1ccc2c(c1)C(C)(C)C(=CC=CC=CC1=[N+](C)c3ccc(OCC)cc3C1(C)C)N2C` [Compound B, reference compound]: in series [2], the “solubility in solvents (in words)” value is “not satisfactory in solubility in solvents” and the Solubility entry is reported as “up to 10 g/1”.
In series [1] (diacetone alcohol), `COc1cc(C)c2c(c1)C(C)(C)C(=CC=CC=CC1=[N+](CCO)c3c(C)cc(OC)cc3C1(C)C)N2CCO` [Preparation Example 4] gave a ε of 184000 cm⁻¹ and a λmax of 679 nm.
Take `CCCN1C(=CC=CC=CC2=[N+](CCC)c3cc(C)c(OC)cc3C2(C)C)C(C)(C)c2cc(OC)c(C)cc21` [Preparation Example 6]: the Solubility result in series [2] is recorded as “at least 30 g/1”. For the same compound, in series [1] (diacetone alcohol), the ε is 174000 cm⁻¹ and the λmax came out at 683 nm.
In the case of `COCCN1C(=CC=CC=CC2=[N+](CCOC)c3c(C)cc(OC)cc3C2(C)C)C(C)(C)c2cc(OC)cc(C)c21` [Preparation Example 5], in series [1] (diacetone alcohol), the ε is 185000 cm⁻¹ and the λmax turned out to be 679 nm.
For `COc1cc(C(C)C)c2c(c1)C(C)(C)C(=CC=CC=CC1=[N+](C)c3c(C(C)C)cc(OC)cc3C1(C)C)N2C` [Preparation Example 10], in that order: 162000 cm⁻¹ and 681 nm.
In series [2], `CCN1C(=CC=CC=CC2=[N+](CC)c3c(OC)cc(OC)cc3C2(C)C)C(C)(C)c2cc(OC)cc(OC)c21` [Preparation Example 1] yielded a Solubility of 30 g/1.
Take `CCOc1cc(C)c2c(c1)C(C)(C)C(=CC=CC=CC1=[N+](CC)c3c(C)cc(OCC)cc3C1(C)C)N2CC` [Preparation Example 7]: in series [1] (dichloroethane), the ε was 1.75×10^5 cm^- and the λmax was 681 nm.
Consider `COCN1C(=CC=CC=CC2=[N+](COC)c3cc(OC)c(OC)cc3C2(C)C)C(C)(C)c2cc(OC)c(OC)cc21` [Preparation Example 3], for which the Solubility result in series [2] is recorded as “at least 30 g/1”. For the same compound, in series [1] (diacetone alcohol), the ε stood at 160000 cm⁻¹ and the λmax was found to be 702 nm.
For `CCOc1cc(OCC)c2c(c1)C(C)(C)C(=CC=CC=CC1=[N+](CC)c3c(OCC)cc(OCC)cc3C1(C)C)N2CC` [Preparation Example 2], in series [1] (dichloromethane), the ε is recorded as 1.72×10^5 cm^- and the λmax worked out at 698 nm.
On to `CCCCN1C(=CC=CC=CC2=[N+](CCCC)c3cc(OC)c(OC)cc3C2(C)C)C(C)(C)c2cc(OC)c(OC)cc21` [Preparation Example 11], for which the Solubility result in series [2] is given as “at least 30 g/1”. In series [1] (diacetone alcohol), the ε stood at 162000 cm⁻¹ and the λmax is given as 703 nm.
For `COCCN1C(=CC=CC=CC2=[N+](CCOC)c3c(OC)cc(OC)cc3C2(C)C)C(C)(C)c2cc(OC)cc(OC)c21` [Preparation Example 14], the Solubility result in series [2] is “at least 30 g/1”. Further, in series [1] (diacetone alcohol), the ε was 180000 cm⁻¹ and the λmax was 695 nm.
Take `CCCCN1C(=CC=CC=CC2=[N+](CCCC)c3cc(OC)c(OC)cc3C2(C)C)C(C)(C)c2cc(OC)c(OC)cc21` [Preparation Example 12]: in series [1] (dichloromethane), the ε worked out at 161000 cm⁻¹ and the λmax is 699 nm.
Regarding `CCOc1ccc2c(c1)C(C)(C)C(=CC=CC=CC=CC1=[N+](C)c3ccc(OCC)cc3C1(C)C)N2C` [Compound A, reference compound], in series [2], the “solubility in solvents (in words)” value is recorded as “does not exhibit good solubility in solvents” and the Solubility result was “up to 10 g/1”.
In series [1] (diacetone alcohol), `COc1cc(OC)c2c(c1)C(C)(C)C(=CC=CC=CC1=[N+](CCOC(C)=O)c3c(OC)cc(OC)cc3C1(C)C)N2CCOC(C)=O` [Preparation Example 13] showed a ε of 175000 cm⁻¹ and a λmax of 693 nm.
On the same counts, the results for `CCc1cc(OC)cc2c1N(CC)C(=CC=CC=CC1=[N+](CC)c3c(CC)cc(OC)cc3C1(C)C)C2(C)C` [Preparation Example 9] are 182000 cm⁻¹ and 681 nm.
